Experimental findings from US10624893B2 (priority 2016, dated 2020) are described below.

One data set relates to M. bovis 0AF2122. As to the kind of experiment: microbe, parasite or virus in culture. Format: cell-based. The note with it: Mycobacterium tuberculosis variant bovis, 0AF2122, read-out: MIC 2.
For data set [1], the system named is Mycobacterium tuberculosis Erdman strain. Briefly: Extracellular viability assay, Erdman strain, cholesterol media (Method 3). Format: cell-based. Conditions: 0.01% cholesterol medium, 7 days + 48 h resazurin, average over 5 measurements. (In general: Resazurin is reduced to fluorescent resorufin, in cell work by metabolically active cells.)
In data set [2] the test system is Mycobacterium tuberculosis (H37Rv strain from ATCC cat #27294) expressing the green-fluorescent protein (GFP). Briefly: microbe, parasite or virus in culture. Type of data set: cell-based. The note with it: 120 h.
In data set [3] the test system is Mycobacterium tuberculosis growing inside human THP-1 monocytes. As to the kind of experiment: Intracellular viability assay 1a (THP-1, luciferase, Steady-Glo). Format: cell-based, Mycobacterium tuberculosis H37Rv. The note with it: THP-1, 120 h.
For another data set, the system named is M. africanum. Briefly: Extracellular MIC assay of Example 7, M. africanum. Type of data set: cell-based. The note with it: Mycobacterium tuberculosis, cholesterol medium.
Data set [4] concerns Mycobacterium tuberculosis growing inside human THP-1 monocytes. As to the kind of experiment: Intracellular viability assay 1b (THP-1, luciferase, Bright-Glo). Format: cell-based, Mycobacterium tuberculosis H37Rv. The note with it: THP-1, 120 h.
The test system of data set [5] is M. tuberculosis strain H37Rv. As to the kind of experiment: Extracellular viability assay, glucose media (Method 2), resazurin MIC. Type of data set: cell-based. Conditions: Mycobacterium tuberculosis.
For data set [6], the system named is Mycobacterium bovis BCG str. Pasteur 1173P2. Briefly: microbe, parasite or virus in culture. Type of data set: cell-based.
Data set [7] deals with Mycobacterium tuberculosis growing inside murine Raw 264.7 cell line. Briefly: microbe, parasite or virus in culture. Format: cell-based. The note with it: H37RV, RAW264.7, 120 h.
Data set [8] relates to M. tuberculosis H37Rv strain. Conditions: for reduction of microorganism burden in lungs with respect to untreated controls (Day 9): C57BL/6 mice.
Where [9] appears, read: read-out: IC50 (uM) (cholesterol media).
Where [10] appears, read: read-out: IC50 (uM) (glucose media).

As a reminder, the pIC50 is −log10 of the IC50, conventionally taken in molar units. For orientation: IC50 means the concentration needed to halve the response being measured. One may read the % Inhibition as the relative decrease from the control value, in per cent. A lower % Inhibition goes with a weak effect. As a reminder, the inhibition is how much of the control response was suppressed.

pIC50: −log10 of the molar value. Converted amounts (≈) assume the structure as drawn. Read-outs that look alike come from different tables or passages of the source.

Take `Cc1cccc(OC2CCN(Cc3cc(=O)[nH]c(=O)[nH]3)CC2)c1C` [Test Compound, 6-((4-(2,3-dimethylphenoxy)piperidin-1-yl)methyl)pyrimidine-2,4(1H,3H)-dione]: the MIC with M. bovis 0AF2122 is 0.78 µM (≈ 0.257 µg/mL); in the data set with M. africanum (read-out: MIC 1), 1.2 µM (≈ 0.395 µg/mL); with M. africanum (read-out: MIC 2) it was 1.2 µM (≈ 0.395 µg/mL); in data set [5] it was over 12.5 µM. Besides, the pIC50 was 6.06 in data set [1], 6.41 in data set [3], 7.15 in [4] and 7.22 in [7]. The IC50 was 0.28 µM in data set [2] (setting [9]) and over 20 µM in data set [2] (setting [10]). For the same compound, in data set [6], the “% Inhibition” value came to 46.18%. Further, the “reduction of microorganism burden in lungs with respect to untreated controls (Day 9)” value in data set [8] (200 mg/kg once a day for 8 days) was determined as 1.6 log10 CFU. Moreover, in data set [8] (mouse), the “oral bioavailability (conclusion from murine in vivo data)” value is “orally bioavailable”.

In the case of `NNC(=O)c1ccncc1` [Isoniazid], the IC50 turned out to be 0.2 µM in data set [2] (setting [9]) and 0.5 µM in [2] (setting [10]). For the same compound, in data set [7], the pIC50 is 7.15.

As to `CO[C@H]1/C=C/O[C@@]2(C)Oc3c(C)c(O)c4c(O)c(c(/C=N/N5CCN(C)CC5)c(O)c4c3C2=O)NC(=O)/C(C)=C\C=C\[C@H](C)[C@H](O)[C@@H](C)[C@@H](O)[C@@H](C)[C@H](OC(C)=O)[C@@H]1C` [Rifampicin, reference compound], the IC50 was 0.04 µM in data set [2] (setting [9]) and 0.02 µM in data set [2] (setting [10]). Besides, the pIC50 in [3] is 8.00; in data set [4] it was 8.70; in [7] it was 6.70. Moreover, testing at 2 µM in data set [6] (Mycobacterium tuberculosis variant bovis BCG, BCG) gave an inhibition of 100%.

Take `COc1c(N2C[C@@H]3CCCN[C@@H]3C2)c(F)cc2c(=O)c(C(=O)O)cn(C3CC3)c12` [Moxifloxacin, reference compound]: the “reduction of microorganism burden in lungs with respect to untreated controls (Day 9)” value in data set [8] (30 mg/kg once a day for 8 days) came to 3.2 log10 CFU.
